By IC50 is commonly meant the midpoint of a concentration-inhibition curve. High values mean lower potency, low ones higher potency.

Among the data in US9637491B2, “Pyrazolo[4,3-D]pyrimidines as kinase inhibitors” (Origenis GmbH, priority 2012, dated 2017) are IC50 values, retold here.

Structures are written as SMILES.

This experiment has as its target T1, SYK kinase (Homo sapiens, UniProt P43405).
T1 construct: purchased Invitrogen, Carlsbad
In words: SYK assay (OMNIA Kinase Assay, Invitrogen). The experiment is classed as biochemical. The following applies: SYK Activities; 1 mM ATP, 10 μM Omnia Peptide Substrate Tyr 7, 30° C. The essentials: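 Continuous-read fluorescence kinase assay: SOX-labelled Tyr 7 peptide (10 μM) with 1 mM ATP and 0.2 mM DTT, 30° C, reaction started by adding SYK. Fluorescence (ex 360/em 485 nm) read every 30 s for 30 min. IC50 from sigmoidal fit of reaction velocity versus inhibitor concentration.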

`COc1cc(Nc2nc(-c3ccc4cn[nH]c4c3)nc3cn[nH]c23)ccc1N1CCOCC1` [Example 54, 5-(1H-indazol-6-yl)-N-(3-methoxy-4-morpholinophenyl)-1H-pyrazolo[4,3-d]pyrimidin-7-amine] showed an IC50 below 10 nM.

`Fc1cc2cn[nH]c2cc1-c1nc(Nc2ccc(N3CCOCC3)cc2)c2[nH]ncc2n1` [Example 77, 5-(5-fluoro-1H-indazol-6-yl)-N-(4-morpholinophenyl)-1H-pyrazolo[4,3-d]pyrimidin-7-amine]: the IC50 was in the range of 10 to 100 nM.

For the compound `COc1cccc(-c2nc(Nc3cnn(C4CC4)c3)c3[nH]ncc3n2)c1` [Example 406, N-(1-cyclopropyl-1H-pyrazol-4-yl)-5-(3-methoxyphenyl)-1H-pyrazolo[4,3-d]pyrimidin-7-amine], the IC50 fell in the range of 100 to 1000 nM.

In the case of `CC(C)n1cc(Nc2nc(-c3ccc4cn[nH]c4c3)nc3cn[nH]c23)cn1` [Example 414, 5-(1H-indazol-6-yl)-N-(1-isopropyl-1H-pyrazol-4-yl)-1H-pyrazolo[4,3-d]pyrimidin-7-amine], the IC50 lay within 10 to 100 nM.

Consider `CC(=O)N1CCN(c2ccc(Nc3nc(-c4ccno4)nc4cn[nH]c34)cc2)CC1` [Example 67, 1-(4-(4-((5-(isoxazol-5-yl)-1H-pyrazolo[4,3-d]pyrimidin-7-yl)amino)phenyl)piperazin-1-yl)ethan-1-one], for which the IC50 is 100 to 1000 nM.

Turning to `CC(C)Cn1cc(Nc2nc(-c3ccoc3)nc3cn[nH]c23)cn1` [Example 240, 5-(furan-3-yl)-N-(1-isobutyl-1H-pyrazol-4-yl)-1H-pyrazolo[4,3-d]pyrimidin-7-amine], the IC50 was 10 to 100 nM.

`Cc1ccc(-c2nc(Nc3ccc(N4CCOCC4)cc3)c3[nH]ncc3n2)s1` [Example 9, 5-(5-methylthiophen-2-yl)-N-(4-morpholinophenyl)-1H-pyrazolo[4,3-d]pyrimidin-7-amine]: the IC50 was in the range of 10 to 100 nM.

For the compound `CC(C)(C)N1CCN(c2ccc(Nc3nc(-c4cccc(NS(C)(=O)=O)c4)nc4cn[nH]c34)cc2)CC1` [Example 39], the IC50 is 100 to 1000 nM.

On to `OCCn1cc(Nc2nc(-c3ccc4cn[nH]c4c3)nc3cn[nH]c23)cn1` [Example 476, 2-(4-((5-(1H-indazol-6-yl)-1H-pyrazolo[4,3-d]pyrimidin-7-yl)amino)-1H-pyrazol-1-yl)ethan-1-ol], for which the IC50 lay within 10 to 100 nM.

For `FCCn1cc(Nc2nc(-c3ccco3)nc3cn[nH]c23)cn1` [Example 367, N-(1-(2-fluoroethyl)-1H-pyrazol-4-yl)-5-(furan-2-yl)-1H-pyrazolo[4,3-d]pyrimidin-7-amine], the IC50 fell in the range of 10 to 100 nM.

With `CN1CCC(n2cc(Nc3nc(-c4cccs4)nc4cn[nH]c34)cn2)CC1` [Example 433, N-(1-(1-methylpiperidin-4-yl)-1H-pyrazol-4-yl)-5-(thiophen-2-yl)-1H-pyrazolo[4,3-d]pyrimidin-7-amine], the IC50 is below 10 nM.

`COCCCn1cc(Nc2nc(-c3ccc4cn[nH]c4c3)nc3cn[nH]c23)cn1` [Example 419, 5-(1H-indazol-6-yl)-N-(1-(3-methoxypropyl)-1H-pyrazol-4-yl)-1H-pyrazolo[4,3-d]pyrimidin-7-amine] gave an IC50 of 10 to 100 nM.

Consider `COCCn1cc(Nc2nc(C3CCC3)nc3cn[nH]c23)cn1` [Example 191, 5-cyclobutyl-N-(1-(2-methoxyethyl)-1H-pyrazol-4-yl)-1H-pyrazolo[4,3-d]pyrimidin-7-amine], for which the IC50 is 10 to 100 nM.

As for `OCCn1cc(Nc2nc(-c3cocn3)nc3cn[nH]c23)cn1` [Example 247, 2-(4-((5-(oxazol-4-yl)-1H-pyrazolo[4,3-d]pyrimidin-7-yl)amino)-1H-pyrazol-1-yl)ethan-1-ol], the IC50 lay within 10 to 100 nM.

With `c1coc(-c2nc(Nc3cnn(C4CCOCC4)c3)c3[nH]ncc3n2)c1` [Example 117, 5-(furan-2-yl)-N-(1-(tetrahydro-2H-pyran-4-yl)-1H-pyrazol-4-yl)-1H-pyrazolo[4,3-d]pyrimidin-7-amine], the IC50 was in the range of 10 to 100 nM.

Take `c1cc(N2CCNCC2)ccc1Nc1nc(C2CC2)nc2cn[nH]c12` [Example 55, 5-cyclopropyl-N-(4-(piperazin-1-yl)phenyl)-1H-pyrazolo[4,3-d]pyrimidin-7-amine]: the IC50 was 100 to 1000 nM.

In turn, `OCCN1CCN(c2ccc(Nc3nc(-c4ccoc4)nc4cn[nH]c34)cc2)CC1` [Example 442, 2-(4-(4-((5-(furan-3-yl)-1H-pyrazolo[4,3-d]pyrimidin-7-yl)amino)phenyl)piperazin-1-yl)ethan-1-ol] registered an IC50 of 10 to 100 nM.

Take `O=C1CCCc2ccc(Nc3nc(-c4c(F)cccc4F)nc4cn[nH]c34)cc2N1` [Example 521, 8-((5-(2,6-difluorophenyl)-1H-pyrazolo[4,3-d]pyrimidin-7-yl)amino)-4,5-dihydro-1H-benzo[b]azepin-2(3H)-one]: the IC50 was in the range of 100 to 1000 nM.

With `CC(C(=O)O)n1cc(Nc2nc(-c3ccoc3)nc3cn[nH]c23)cn1` (stereo not drawn) [Example 486, 2-(4-((5-(furan-3-yl)-1H-pyrazolo[4,3-d]pyrimidin-7-yl)amino)-1H-pyrazol-1-yl)propanoic acid], the IC50 is 100 to 1000 nM.

Compound `FC(F)(F)Cn1cc(Nc2nc(-c3ccoc3)nc3cn[nH]c23)cn1` [Example 375, 5-(furan-3-yl)-N-(1-(2,2,2-trifluoroethyl)-1H-pyrazol-4-yl)-1H-pyrazolo[4,3-d]pyrimidin-7-amine] came in with an IC50 of 100 to 1000 nM.

`COCCn1cc(Nc2nc(-c3cnn(C)c3)nc3cn[nH]c23)cn1` [Example 188, N-(1-(2-methoxyethyl)-1H-pyrazol-4-yl)-5-(1-methyl-1H-pyrazol-4-yl)-1H-pyrazolo[4,3-d]pyrimidin-7-amine] came in with an IC50 of 100 to 1000 nM.
